Measurements reported in the NIST ThermoML archive (doi:10.1016/j.fluid.2007.08.010).
Numbers after ± are expanded uncertainties.

Details: Liquid, Falling or rolling sphere viscometry

SMILES | viscosity (313.2 K, 690 kPa) | viscosity (313.2 K, 5000 kPa) | viscosity (313.2 K, 10000 kPa) | viscosity (313.2 K, 20000 kPa) | viscosity (313.2 K, 30000 kPa) | viscosity (313.2 K, 40000 kPa) | viscosity (313.2 K, 50000 kPa) | viscosity (313.2 K, 60000 kPa) | viscosity (333.2 K, 690 kPa) | viscosity (333.2 K, 5000 kPa) | viscosity (333.2 K, 10000 kPa) | viscosity (333.2 K, 20000 kPa) | viscosity (333.2 K, 30000 kPa) | viscosity (333.2 K, 40000 kPa) | viscosity (333.2 K, 50000 kPa) | viscosity (333.2 K, 60000 kPa) | viscosity (353.2 K, 690 kPa) | viscosity (353.2 K, 5000 kPa) | viscosity (353.2 K, 10000 kPa) | viscosity (353.2 K, 20000 kPa) | other results
c1ccccc1 [benzene] | 0.479 ± 0.02 mPa·s | 0.5 ± 0.02 mPa·s | 0.524 ± 0.021 mPa·s | 0.574 ± 0.023 mPa·s | 0.625 ± 0.025 mPa·s | 0.675 ± 0.027 mPa·s | 0.725 ± 0.029 mPa·s | 0.774 ± 0.031 mPa·s | 0.387 ± 0.016 mPa·s | 0.404 ± 0.016 mPa·s | 0.424 ± 0.017 mPa·s | 0.466 ± 0.019 mPa·s | 0.509 ± 0.021 mPa·s | 0.553 ± 0.023 mPa·s | 0.597 ± 0.024 mPa·s | 0.641 ± 0.026 mPa·s | 0.317 ± 0.013 mPa·s | 0.331 ± 0.013 mPa·s | 0.347 ± 0.014 mPa·s | 0.38 ± 0.015 mPa·s | viscosity (353.2 K, 30000 kPa): 0.415 ± 0.017 mPa·s; viscosity (353.2 K, 40000 kPa): 0.451 ± 0.018 mPa·s; viscosity (353.2 K, 50000 kPa): 0.489 ± 0.02 mPa·s; viscosity (353.2 K, 60000 kPa): 0.526 ± 0.021 mPa·s; viscosity (373.2 K, 690 kPa): 0.269 ± 0.011 mPa·s; viscosity (373.2 K, 5000 kPa): 0.279 ± 0.011 mPa·s; viscosity (373.2 K, 10000 kPa): 0.291 ± 0.012 mPa·s; viscosity (373.2 K, 20000 kPa): 0.316 ± 0.013 mPa·s; viscosity (373.2 K, 30000 kPa): 0.344 ± 0.014 mPa·s; viscosity (373.2 K, 40000 kPa): 0.372 ± 0.015 mPa·s; viscosity (373.2 K, 50000 kPa): 0.402 ± 0.016 mPa·s; viscosity (373.2 K, 60000 kPa): 0.434 ± 0.018 mPa·s; viscosity (393.2 K, 690 kPa): 0.239 ± 0.01 mPa·s; viscosity (393.2 K, 5000 kPa): 0.246 ± 0.01 mPa·s; viscosity (393.2 K, 10000 kPa): 0.255 ± 0.01 mPa·s; viscosity (393.2 K, 20000 kPa): 0.273 ± 0.011 mPa·s; viscosity (393.2 K, 30000 kPa): 0.294 ± 0.012 mPa·s; viscosity (393.2 K, 40000 kPa): 0.315 ± 0.013 mPa·s; viscosity (393.2 K, 50000 kPa): 0.339 ± 0.014 mPa·s; viscosity (393.2 K, 60000 kPa): 0.364 ± 0.015 mPa·s
CCCCCCCCCCCCCC [tetradecane] | 1.653 ± 0.068 mPa·s | 1.738 ± 0.071 mPa·s | 1.831 ± 0.075 mPa·s | 2.025 ± 0.083 mPa·s | 2.241 ± 0.092 mPa·s | 2.483 ± 0.1 mPa·s | 2.767 ± 0.11 mPa·s | 3.093 ± 0.13 mPa·s | 1.218 ± 0.05 mPa·s | 1.283 ± 0.053 mPa·s | 1.345 ± 0.055 mPa·s | 1.473 ± 0.06 mPa·s | 1.607 ± 0.066 mPa·s | 1.74 ± 0.071 mPa·s | 1.886 ± 0.077 mPa·s | 2.043 ± 0.084 mPa·s | 0.896 ± 0.037 mPa·s | 0.957 ± 0.039 mPa·s | 1.017 ± 0.042 mPa·s | 1.128 ± 0.046 mPa·s | viscosity (353.2 K, 30000 kPa): 1.229 ± 0.05 mPa·s; viscosity (353.2 K, 40000 kPa): 1.325 ± 0.054 mPa·s; viscosity (353.2 K, 50000 kPa): 1.423 ± 0.058 mPa·s; viscosity (353.2 K, 60000 kPa): 1.518 ± 0.062 mPa·s; viscosity (373.2 K, 690 kPa): 0.66 ± 0.027 mPa·s; viscosity (373.2 K, 5000 kPa): 0.708 ± 0.029 mPa·s; viscosity (373.2 K, 10000 kPa): 0.757 ± 0.031 mPa·s; viscosity (373.2 K, 20000 kPa): 0.852 ± 0.035 mPa·s; viscosity (373.2 K, 30000 kPa): 0.943 ± 0.039 mPa·s; viscosity (373.2 K, 40000 kPa): 1.031 ± 0.042 mPa·s; viscosity (373.2 K, 50000 kPa): 1.117 ± 0.046 mPa·s; viscosity (373.2 K, 60000 kPa): 1.202 ± 0.049 mPa·s; viscosity (393.2 K, 690 kPa): 0.527 ± 0.022 mPa·s; viscosity (393.2 K, 5000 kPa): 0.568 ± 0.023 mPa·s; viscosity (393.2 K, 10000 kPa): 0.609 ± 0.025 mPa·s; viscosity (393.2 K, 20000 kPa): 0.687 ± 0.028 mPa·s; viscosity (393.2 K, 30000 kPa): 0.767 ± 0.031 mPa·s; viscosity (393.2 K, 40000 kPa): 0.839 ± 0.034 mPa·s; viscosity (393.2 K, 50000 kPa): 0.908 ± 0.037 mPa·s; viscosity (393.2 K, 60000 kPa): 0.976 ± 0.04 mPa·s
